Source: ChEMBL document CHEMBL5236590, “Discovery of Novel N-(5-(Pyridin-3-yl)-1H-indazol-3-yl)benzamide Derivatives as Potent Cyclin-Dependent Kinase 7 Inhibitors for the Treatment of Autosomal Dominant Polycystic Kidney Disease” (J Med Chem, 2022)
Active and inactive are the calls of the source. The calls are words filed in the database; no cut-off is given here.

Assays:
[1] = target: Cyclin-dependent kinase 6 (Homo sapiens, UniProt Q00534); assay: Inhibition of CDK6 (unknown origin)
[2] = target: Tyrosine-protein kinase Lyn (Homo sapiens) (UniProt P07948); assay: Inhibition of human partial length wild type Lyn (C219/Q511) expressed in bacterial system at 1 uM by KINOMEscan analysis relative to control
Tyrosine-protein kinase Lyn (Homo sapiens), sequence (P07948 2-512 limits assumed): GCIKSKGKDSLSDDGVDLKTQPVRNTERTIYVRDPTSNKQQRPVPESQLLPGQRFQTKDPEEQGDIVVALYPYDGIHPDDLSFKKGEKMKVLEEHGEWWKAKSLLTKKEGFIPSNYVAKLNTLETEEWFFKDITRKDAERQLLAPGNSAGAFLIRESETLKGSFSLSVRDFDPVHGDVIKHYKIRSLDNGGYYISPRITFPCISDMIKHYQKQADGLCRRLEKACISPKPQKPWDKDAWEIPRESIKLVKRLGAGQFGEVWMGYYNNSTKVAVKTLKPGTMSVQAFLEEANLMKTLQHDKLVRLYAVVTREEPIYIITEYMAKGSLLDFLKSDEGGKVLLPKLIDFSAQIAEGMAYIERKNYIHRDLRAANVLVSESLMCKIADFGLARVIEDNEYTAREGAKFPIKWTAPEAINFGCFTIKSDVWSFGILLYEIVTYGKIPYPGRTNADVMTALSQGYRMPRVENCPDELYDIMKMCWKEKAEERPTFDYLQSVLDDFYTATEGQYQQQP

[3] = target: Protein kinase C theta type (Homo sapiens) (UniProt Q04759); assay: Inhibition of human partial length TPKCtheta (L350/S706) expressed in bacterial system at 1 uM by KINOMEscan analysis relative to control
[4] = target: cAMP-dependent protein kinase catalytic subunit alpha (Homo sapiens) (UniProt P17612); assay: Inhibition of human recombinant PKA expressed in Escherichia coli at 1 uM by KINOMEscan analysis relative to control
[5] = species: Homo sapiens; assay: Inhibition of P13 Kinase p120gamma (unknown origin) at 1 uM relative to control
[6] = target: Ribosomal protein S6 kinase alpha-4 (Homo sapiens) (UniProt O75676); assay: Inhibition of human partial length wild type MSK2 expressed in bacterial system at 1 uM by KINOMEscan analysis relative to control
[7] = Plasma protein binding in mouse measured after 4 hrs by LC-MS/MS analysis; type: ADME, cell-free; conditions: read-out: PPB
[8] = tested on: THP-1; assay: Cytotoxicity against human THP-1 cells assessed as cell viability measured after 24 hrs by CCK-8 assay; type: functional, cell-based; conditions: THP-1, 24 h
[9] = target: T1, Cyclin-dependent kinase 7 (Homo sapiens, UniProt P50613); assay: Inhibition of CDK7 (unknown origin)
T1 sequence (P50613 whole entry): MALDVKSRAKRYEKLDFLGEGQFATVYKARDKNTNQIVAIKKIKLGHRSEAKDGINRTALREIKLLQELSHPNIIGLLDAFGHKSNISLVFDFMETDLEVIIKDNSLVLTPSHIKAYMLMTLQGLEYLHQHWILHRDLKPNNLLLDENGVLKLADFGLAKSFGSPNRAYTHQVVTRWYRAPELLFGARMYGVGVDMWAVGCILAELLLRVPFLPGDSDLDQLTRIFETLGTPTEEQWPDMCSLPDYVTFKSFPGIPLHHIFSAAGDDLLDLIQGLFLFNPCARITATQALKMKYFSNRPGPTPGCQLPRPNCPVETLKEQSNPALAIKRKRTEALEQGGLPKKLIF

[10] = Observed MRT (infinitive) in ICR mouse at 5 mg/kg, sc single dose measured upto 24 hrs; type: ADME, organism-based; conditions: in vivo
[11] = Observed clearance in ICR mouse at 5 mg/kg, iv single dose measured upto 24 hrs; type: ADME, organism-based; conditions: in vivo
[12] = target: SRSF protein kinase 1 (Homo sapiens) (UniProt Q96SB4); assay: Inhibition of human full length wild type SRPK1 expressed in mammalian system at 1 uM by KINOMEscan analysis relative to control
[13] = AUClast in ICR mouse at 5 mg/kg, sc single dose measured upto 24 hrs; type: ADME, organism-based; design: time < 24 hrs, dose 5 mg/kg, route sc; conditions: in vivo
[14] = tested on: Mus musculus; assay: Reduction in cyst size in kidney-specific Pkd1 knockout ADPKD mouse model assessed as renal cystic index at 5 mg/kg by HE staining analysis; type: functional, organism-based
[15] = Observed AUC (infinitive) in ICR mouse at 5 mg/kg, iv single dose measured upto 24 hrs; type: ADME, organism-based; design: dose 5 mg/kg, time < 24 hrs, route iv; conditions: in vivo
[16] = Toxicity in wild type mouse assessed as kidney size at 5 mg/kg; type: organism-based; conditions: in vivo
[17] = Observed MRT (infinitive) in ICR mouse at 5 mg/kg, iv single dose measured upto 24 hrs; type: ADME, organism-based; conditions: in vivo
[18] = Apparent permeability across basolateral to apical side in human Caco-2 cells measured after 120 mins by LC-MS/MS analysis; type: ADME, cell-based
[19] = target: Ephrin type-A receptor 5 (Homo sapiens) (UniProt P54756); assay: Inhibition of human partial length wild type EphA5 (T627/V930) expressed in bacterial system at 1 uM by KINOMEscan analysis relative to control
[20] = species: Mus musculus; assay: Suppression of cyst formation in C57BL/6 mouse embryonic kidney cyst model at 1 to 3 uM measured for 4 to 12 […]; type: functional, organism-based; conditions: dose 1-3 µM, time 4-12 hrs
[21] = Cmax in ICR mouse at 5 mg/kg, sc single dose measured upto 24 hrs; type: ADME, organism-based; design: time < 24 hrs, dose 5 mg/kg, route sc; conditions: in vivo
[22] = target: Ribosomal protein S6 kinase beta-1 (Homo sapiens) (UniProt P23443); assay: Inhibition of human partial length wild type p70S6K (M1/S421) expressed in mammalian system at 1 uM by KINOMEscan analysis relative to control
Ribosomal protein S6 kinase beta-1 (Homo sapiens), sequence (P23443 whole entry, looked up): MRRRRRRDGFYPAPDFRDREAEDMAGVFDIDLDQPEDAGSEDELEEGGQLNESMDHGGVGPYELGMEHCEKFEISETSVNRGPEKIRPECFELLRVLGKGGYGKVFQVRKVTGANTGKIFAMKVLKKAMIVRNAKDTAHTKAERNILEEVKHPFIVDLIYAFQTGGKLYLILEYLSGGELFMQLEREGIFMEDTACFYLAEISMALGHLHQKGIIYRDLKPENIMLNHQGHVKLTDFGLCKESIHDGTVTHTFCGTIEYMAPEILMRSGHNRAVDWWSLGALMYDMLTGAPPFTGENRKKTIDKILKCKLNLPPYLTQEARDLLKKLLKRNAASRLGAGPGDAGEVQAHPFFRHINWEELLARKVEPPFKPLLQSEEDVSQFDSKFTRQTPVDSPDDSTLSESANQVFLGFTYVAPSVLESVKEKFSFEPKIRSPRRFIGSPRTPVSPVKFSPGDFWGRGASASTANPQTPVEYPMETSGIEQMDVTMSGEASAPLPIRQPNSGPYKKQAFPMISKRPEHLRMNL

[23] = target: T1, Cyclin-dependent kinase 7; assay: Inhibition of CDK7 (unknown origin) assessed as phosphorylation of ULight 4EBP1 peptide substrate measured after 2 hrs by FRET-based LANCE Ultra KinSelect assay
[24] = target: Mitogen-activated protein kinase kinase kinase 7 (Homo sapiens) (UniProt O43318); assay: Inhibition of human partial length TAK1 (M1/Q303) expressed in mammalian system at 1 uM by KINOMEscan analysis relative to control
[25] = target: Serine/threonine-protein kinase Chk1 (Homo sapiens) (UniProt O14757); assay: Inhibition of human partial length wild type CHK1 expressed in bacterial system at 1 uM by KINOMEscan analysis relative to control
[26] = target: RAC-alpha serine/threonine-protein kinase (Homo sapiens) (UniProt P31749); assay: Inhibition of PKBalpha (unknown origin) at 1 uM relative to control
[27] = target: MAP kinase-activated protein kinase 2 (Homo sapiens) (UniProt P49137); assay: Inhibition of human partial length wild type MAPKAP-K2 expressed in bacterial system at 1 uM by KINOMEscan analysis relative to control
[28] = target: Platelet-derived growth factor receptor beta (Homo sapiens) (UniProt P09619); assay: Inhibition of human partial length wild type PDGFRbeta V582/Y1009 expressed in bacterial system at 1 uM by KINOMEscan analysis relative to control
Platelet-derived growth factor receptor beta (Homo sapiens), sequence (P09619 whole entry): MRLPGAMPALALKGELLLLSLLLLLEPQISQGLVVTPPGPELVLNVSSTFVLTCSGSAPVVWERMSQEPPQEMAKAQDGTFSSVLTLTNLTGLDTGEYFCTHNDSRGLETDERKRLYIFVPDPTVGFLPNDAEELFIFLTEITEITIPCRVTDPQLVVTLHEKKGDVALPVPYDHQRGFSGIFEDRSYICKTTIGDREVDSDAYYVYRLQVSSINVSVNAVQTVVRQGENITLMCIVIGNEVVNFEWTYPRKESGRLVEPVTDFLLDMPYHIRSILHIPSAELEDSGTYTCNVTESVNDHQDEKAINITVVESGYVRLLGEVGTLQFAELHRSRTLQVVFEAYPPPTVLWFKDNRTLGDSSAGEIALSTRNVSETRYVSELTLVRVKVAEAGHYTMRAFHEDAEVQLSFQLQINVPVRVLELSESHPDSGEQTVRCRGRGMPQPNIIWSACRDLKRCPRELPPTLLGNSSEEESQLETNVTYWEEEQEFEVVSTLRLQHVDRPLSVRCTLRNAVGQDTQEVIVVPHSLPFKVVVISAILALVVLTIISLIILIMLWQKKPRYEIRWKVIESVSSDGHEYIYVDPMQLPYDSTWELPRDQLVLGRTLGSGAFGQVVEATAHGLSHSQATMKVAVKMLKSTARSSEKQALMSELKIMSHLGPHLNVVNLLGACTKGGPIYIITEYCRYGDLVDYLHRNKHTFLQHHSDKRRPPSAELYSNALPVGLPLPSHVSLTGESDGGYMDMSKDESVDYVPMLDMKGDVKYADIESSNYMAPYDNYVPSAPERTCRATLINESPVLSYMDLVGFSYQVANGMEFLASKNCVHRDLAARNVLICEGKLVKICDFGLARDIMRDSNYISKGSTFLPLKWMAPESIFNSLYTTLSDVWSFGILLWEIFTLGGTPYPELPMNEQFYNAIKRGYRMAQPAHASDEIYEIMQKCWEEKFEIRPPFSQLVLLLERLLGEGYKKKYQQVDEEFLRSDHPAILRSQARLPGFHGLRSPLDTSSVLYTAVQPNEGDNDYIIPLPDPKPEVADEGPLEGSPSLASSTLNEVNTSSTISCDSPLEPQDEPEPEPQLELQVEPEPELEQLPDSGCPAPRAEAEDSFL

[29] = target: Glycogen synthase kinase-3 beta (Homo sapiens) (UniProt P49841); assay: Inhibition of human full length GSK3beta expressed in mammalian system at 1 uM by KINOMEscan analysis relative to control
Glycogen synthase kinase-3 beta (Homo sapiens), sequence (P49841 whole entry, looked up): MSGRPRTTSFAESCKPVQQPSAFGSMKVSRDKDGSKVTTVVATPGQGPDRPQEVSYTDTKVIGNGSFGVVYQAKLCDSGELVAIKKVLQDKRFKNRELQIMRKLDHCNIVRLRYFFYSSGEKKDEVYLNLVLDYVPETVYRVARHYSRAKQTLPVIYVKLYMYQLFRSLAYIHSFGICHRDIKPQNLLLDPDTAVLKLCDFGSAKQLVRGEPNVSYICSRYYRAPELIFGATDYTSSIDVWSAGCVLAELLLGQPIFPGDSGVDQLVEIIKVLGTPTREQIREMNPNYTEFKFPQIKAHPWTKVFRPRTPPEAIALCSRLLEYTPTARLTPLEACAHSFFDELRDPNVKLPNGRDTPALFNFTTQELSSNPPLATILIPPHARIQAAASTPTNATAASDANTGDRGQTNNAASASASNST

[30] = target: 5'-AMP-activated protein kinase catalytic subunit alpha-1 (Homo sapiens) (UniProt Q13131); assay: Inhibition of human partial length AMPKalphal (M1/E306) expressed in bacterial system at 1 uM by KINOMEscan analysis relative to control
[31] = Half life in ICR mouse at 5 mg/kg, sc single dose measured upto 24 hrs; type: ADME, organism-based; conditions: in vivo
[32] = target: Ribosomal protein S6 kinase alpha-1 (Homo sapiens) (UniProt Q15418); assay: Inhibition of human partial length wild type Rsk1 (M1/E388) expressed in bacterial system at 1 uM by KINOMEscan analysis relative to control
Ribosomal protein S6 kinase alpha-1 (Homo sapiens), sequence (Q15418 whole entry): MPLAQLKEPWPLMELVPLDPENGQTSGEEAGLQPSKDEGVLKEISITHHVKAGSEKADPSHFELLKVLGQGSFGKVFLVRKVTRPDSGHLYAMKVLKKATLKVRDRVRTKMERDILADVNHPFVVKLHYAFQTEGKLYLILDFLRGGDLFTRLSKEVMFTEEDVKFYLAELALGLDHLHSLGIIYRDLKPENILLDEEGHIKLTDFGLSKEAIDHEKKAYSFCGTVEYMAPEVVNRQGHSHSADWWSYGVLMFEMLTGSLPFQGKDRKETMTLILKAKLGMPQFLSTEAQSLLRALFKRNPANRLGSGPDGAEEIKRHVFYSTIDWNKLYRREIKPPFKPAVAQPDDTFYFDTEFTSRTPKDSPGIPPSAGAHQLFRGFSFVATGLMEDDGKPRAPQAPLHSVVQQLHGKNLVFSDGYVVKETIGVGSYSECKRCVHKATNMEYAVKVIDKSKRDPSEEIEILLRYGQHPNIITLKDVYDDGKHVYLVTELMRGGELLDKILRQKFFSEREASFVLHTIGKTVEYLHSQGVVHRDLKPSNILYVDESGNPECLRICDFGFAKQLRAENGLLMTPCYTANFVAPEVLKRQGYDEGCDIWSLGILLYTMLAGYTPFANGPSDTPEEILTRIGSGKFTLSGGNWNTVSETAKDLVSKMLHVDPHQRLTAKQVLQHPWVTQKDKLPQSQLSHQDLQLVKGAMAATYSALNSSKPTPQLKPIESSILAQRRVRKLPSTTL

[33] = target: Mitogen-activated protein kinase 14 (Homo sapiens) (UniProt Q16539); assay: Inhibition of full length human recombinant SAPK2a at 1 uM by radiometric assay
[34] = target: Casein kinase II subunit alpha' (Homo sapiens) (UniProt P19784); assay: Inhibition of human full length wild type CK2alpha2 expressed in mammalian system at 1 uM by KINOMEscan analysis relative to control
[35] = target: Tyrosine-protein kinase Fyn (Homo sapiens) (UniProt P06241); assay: Inhibition of human partial length wild type Fyn (T243/L534) expressed in bacterial system at 1 uM by KINOMEscan analysis relative to control
[36] = Toxicity in wild type mouse assessed as body weight at 5 mg/kg; type: organism-based; conditions: in vivo
[37] = target: MAP kinase-interacting serine/threonine-protein kinase 2 (Homo sapiens) (UniProt Q9HBH9); assay: Inhibition of human partial length wild type Mnk2 (G63/S388) expressed in mammalian system at 1 uM by KINOMEscan analysis relative to control
MAP kinase-interacting serine/threonine-protein kinase 2 (Homo sapiens), sequence (Q9HBH9 whole entry, looked up): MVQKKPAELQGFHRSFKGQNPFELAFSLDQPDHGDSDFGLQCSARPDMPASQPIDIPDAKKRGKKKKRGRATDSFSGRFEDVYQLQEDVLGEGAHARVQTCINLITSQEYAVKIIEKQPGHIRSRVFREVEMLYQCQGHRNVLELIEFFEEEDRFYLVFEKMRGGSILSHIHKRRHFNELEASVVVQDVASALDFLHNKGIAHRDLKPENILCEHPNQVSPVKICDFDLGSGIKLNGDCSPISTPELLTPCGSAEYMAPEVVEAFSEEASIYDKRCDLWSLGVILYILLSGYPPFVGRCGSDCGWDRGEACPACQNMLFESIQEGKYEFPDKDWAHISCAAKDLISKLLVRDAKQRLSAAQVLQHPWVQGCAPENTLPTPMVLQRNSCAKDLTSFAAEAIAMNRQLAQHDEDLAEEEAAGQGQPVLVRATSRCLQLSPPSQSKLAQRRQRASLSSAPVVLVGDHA

[38] = Bioavailability in ICR mouse at 5 mg/kg, sc single dose measured upto 24 hrs; type: ADME, organism-based; conditions: in vivo
[39] = target: Cyclin-dependent kinase 1 (Homo sapiens, UniProt P06493); assay: Inhibition of CDK1 (unknown origin)
Cyclin-dependent kinase 1, sequence (P06493 whole entry): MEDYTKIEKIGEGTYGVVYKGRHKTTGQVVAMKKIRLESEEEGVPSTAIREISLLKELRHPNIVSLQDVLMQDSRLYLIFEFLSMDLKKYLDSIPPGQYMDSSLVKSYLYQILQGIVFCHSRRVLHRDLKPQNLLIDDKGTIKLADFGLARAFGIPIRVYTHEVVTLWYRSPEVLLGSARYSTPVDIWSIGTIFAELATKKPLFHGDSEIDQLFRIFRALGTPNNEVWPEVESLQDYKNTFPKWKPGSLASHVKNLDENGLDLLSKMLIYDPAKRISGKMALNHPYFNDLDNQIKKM

Cyclin-dependent kinase 6, sequence (Q00534 whole entry): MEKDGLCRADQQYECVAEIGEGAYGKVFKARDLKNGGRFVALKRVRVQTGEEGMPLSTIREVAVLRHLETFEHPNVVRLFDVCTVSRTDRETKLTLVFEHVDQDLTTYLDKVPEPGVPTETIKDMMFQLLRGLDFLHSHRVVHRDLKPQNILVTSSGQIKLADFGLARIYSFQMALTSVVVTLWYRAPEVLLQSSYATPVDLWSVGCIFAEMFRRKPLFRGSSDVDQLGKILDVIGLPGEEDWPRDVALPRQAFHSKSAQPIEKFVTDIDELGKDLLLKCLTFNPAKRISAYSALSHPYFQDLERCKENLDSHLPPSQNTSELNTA

C=CC(=O)Nc1ccc(C(=O)Nc2n[nH]c3ccc(-c4cncc(NC[C@@H](O)c5ccccc5)c4)cc23)cc1
IC50 [1]: 950 nM
inhibition [2]: < 50%
inhibition [3]: 74%
inhibition [4]: < 50%
inhibition [5]: < 50%
inhibition [6]: < 50%
fraction unbound at 4 h [7]: < 0.01
IC50 [8]: 13000 nM
IC50 [9]: 4 nM
MRT inf [10]: 5 h
clearance [11]: 3 mL/min/kg
inhibition [12]: < 50%
AUC(0-t) at 24 h [13]: 17300 ng·h/mL
Activity [14]: Active
AUC(0-inf) [15]: 31700 ng·h/mL
Activity [16]: Non-Toxic
MRT inf [17]: 10 h
Papp B→A at 2 h [18]: 6 ×10⁻⁶ cm/s
inhibition [19]: < 50%
inhibition [20]: Dose-Dependent Effect
Cmax [21]: 3810 ng/mL
inhibition [22]: < 50%
IC50 [23]: 4 nM
inhibition [24]: 76%
inhibition [25]: < 50%
inhibition [26]: < 50%
inhibition [27]: < 50%
inhibition [28]: < 50%
inhibition [29]: 99%
inhibition [30]: 79%
half-life [31]: 3 h
inhibition [32]: < 50%
inhibition [33]: < 50%
inhibition [34]: < 50%
inhibition [35]: < 50%
Activity [36]: Non-Toxic
inhibition [37]: < 50%
bioavailability [38]: 64.2%
IC50 [39]: 3370 nM
